Measured values taken from PMC10487436, “Towards Anticancer and Antibacterial Agents: Design and Synthesis of 1,2,3-Triazol-quinobenzothiazine Derivatives” (International Journal of Molecular Sciences, 2023).

What was measured:
[1] = test system: SNB-19 (human glioblastoma); assay: WST-1 proliferation assay, SNB-19; assay type: cell-based; details: Homo sapiens, SNB-19, 72 h exposure
Procedure: (§1) Compounds were evaluated for their antiproliferative activity using three cultured cell lines: A549 (human lung carcinoma, ATCC, Manassas, VA, USA), SNB-19 (human glioblastoma, DSMZ, German Collection of Microorganisms and Cell Cultures), T-47D (human breast cancer, ATCC, Manassas, VA, USA), and NHDF (normal human dermal fibroblasts, ATCC, Manassas, VA, USA). The cultured cells were kept at 37 °C and 5% CO2. The cells were seeded (1 × 10^4 cells/well/100 μL DMEM supplemented with 10% FCS, streptomycin, and penicillin) using 96-well plates (corning). Cells were counted in a hemocytometer (Burker chamber) using a phase contrast Olympus IX50 microscope equipped with a Sony SSC-DC58 AP camera and an Olympus DP10 digital camera.
(§2) The antiproliferative effect of the compounds exerted on cancer and normal cells was determined using the Cell Proliferation Reagent WST-1 assay (Roche Molecular Biochemicals, Mannheim, Germany). This assay is based on a colorimetric method using the enzymatic ability of viable cells to cause the bright, red-colored stable tetrazolium monosodium salt [2-(4-iodophenyl)-3-(4-nitrophenyl)-5-(2,4-disulfophenyl)–2H-tetra-zolium] to transform into the dark, red-colored soluble formazan. […] An increase in the amount of formazan dye formed correlated with the number of metabolically active cells in the culture. The formazan dye produced by metabolically active cells was quantified by absorbance readings at appropriate wavelengths. The examined cells were exposed to the tested compounds (1 mM DMSO stock) for 72 h at various concentrations (0.1–100 μM). The control was performed in order to eliminate the DMSO effect at the concentration used. Cell cultures were incubated with WST-1 (10 μL) for 1 h. The absorbance of the samples was measured against a background control at 450 nm using a microplate reader with a reference wavelength at 600 nm. The obtained results are expressed as the means of at least two independent experiments performed in triplicate. The antiproliferative activity of the tested compounds was compared to that of cisplatinum. The values of IC50 (a concentration of a compound that is required for 50% inhibition) were calculated from the dose-response relationship with respect to control. The results were reported as the mean (±std) of three separate experiments.

[2] = test system: A549 (human lung carcinoma); assay: WST-1 proliferation assay, A549; assay type: cell-based; details: Homo sapiens, A549, 72 h exposure
Procedure: as §1, §2

[3] = test system: T-47D (human breast cancer); assay: WST-1 proliferation assay, T47D; assay type: cell-based; details: Homo sapiens, T47D, 72 h exposure
Procedure: as §1, §2

[4] = test system: NHDF (normal human dermal fibroblasts); assay: WST-1 proliferation assay, NHDF; assay type: cell-based; details: Homo sapiens, NHDF, normal cells, 72 h exposure
Procedure: as §1, §2

[5] = test system: Staphylococcus aureus ATCC 29213; assay: MIC, microtitration broth method, SA; assay type: cell-based; details: ATCC29213, 24 h at 37 °C
Procedure: (§3) In vitro antibacterial activity of the synthesized compounds was evaluated against representatives of multidrug-resistant bacteria, three clinical isolates of methicillin-resistant S. aureus: clinical isolates of animal origin, MRSA 63718 (Department of Infectious Diseases and Microbiology, Faculty of Veterinary Medicine, University of Veterinary Sciences Brno, Czech Republic), carrying the mecA gene; and MRSA SA 630 and MRSA SA 3202 [52] (National Institute of Public Health, Prague, Czech Republic), both of human origin. […] Vancomycin- and methicillin-susceptible S. aureus ATCC 29213 and vancomycin-susceptible Enterococcus faecalis ATCC 29212, obtained from the American Type Culture Collection, were used as the reference and quality control strains. Three vanA gene-carrying vancomycin-resistant isolates of E. faecalis (VRE 342B, VRE 368, VRE 725B) were provided by Oravcova et al..
(§4) The minimum inhibitory concentrations (MICs) were evaluated by the microtitration broth method according to the CLSI, with some modifications. The compounds were dissolved in DMSO (Sigma, St. Louis, MO, USA) to obtain a concentration of […] and diluted in a microtitration plate in an appropriate medium, i.e., Cation Adjusted Mueller–Hinton Broth (CaMH, Oxoid, Basingstoke, UK) for staphylococci, and Brain Heart Infusion Broth (BHI, Oxoid) for enterococci, to reach the final concentration of 256–0.125 µg/mL. Microtiter plates were inoculated with test micro-organisms so that the final concentration of bacterial cells was 10^5. […] A drug-free control and a sterility control were included. The plates were incubated for 24 h at 37 °C for staphylococci and enterococci. […] The experiments were repeated three times.

[6] = test system: methicillin-resistant S. aureus SA 3202; assay: MIC, microtitration broth method, MRSA1; assay type: cell-based; details: Staphylococcus aureus; 24 h at 37 °C
Procedure: as §3, §4

[7] = test system: methicillin-resistant S. aureus SA 630; assay: MIC, microtitration broth method, MRSA2; assay type: cell-based; details: Staphylococcus aureus; 24 h at 37 °C
Procedure: as §3, §4

[8] = test system: methicillin-resistant S. aureus 63718; assay: MIC, microtitration broth method, MRSA3; assay type: cell-based; details: Staphylococcus aureus; 24 h at 37 °C
Procedure: as §3, §4

[9] = test system: Enterococcus faecalis ATCC 29213; assay: MIC, microtitration broth method, EF; assay type: cell-based; details: ATCC29213, 24 h at 37 °C
[10] = test system: vancomycin-resistant E. faecalis VRE 342B; assay: MIC, microtitration broth method, VRE1; assay type: cell-based; details: Enterococcus faecalis, 24 h at 37 °C
Procedure: as §3, §4

[11] = test system: vancomycin-resistant E. faecalis VRE 368; assay: MIC, microtitration broth method, VRE2; assay type: cell-based; details: Enterococcus faecalis, 24 h at 37 °C
Procedure: as §3, §4

[12] = test system: vancomycin-resistant E. faecalis VRE 725B; assay: MIC, microtitration broth method, VRE3; assay type: cell-based; details: Enterococcus faecalis, 24 h at 37 °C
Procedure: as §3, §4

[13] = test system: Mycobacterium smegmatis ATCC 700084; assay: MIC, broth dilution micro-method, MS; assay type: cell-based; details: Mycolicibacterium smegmatis, ATCC700084, 72 h; 3 days at 37 °C
[14] = test system: Mycobacterium marinum CAMP 5644; assay: MIC, broth dilution micro-method, MM; assay type: cell-based; details: CAMP5644, 504 h, 21 days at 28 °C
[15] = test system: Staphylococcus aureus ATCC 29213; assay: MBC, agar aliquot subculture method, SA; assay type: cell-based; details: ATCC29213
Procedure: (§5) For the above-mentioned strains/isolates, the agar aliquot subculture method was used as a test for bactericidal agents. After the MIC value determination, the inoculum was transferred to CaMH (Oxoid) for staphylococci, BHI (Oxoid) for enterococci, and Middlebrook 7H9 (Difco) for mycobacteria medium using a multipoint inoculator. As indicated above, the plates were incubated on a thermostat at 37 °C for the appropriate time for each micro-organism. The lowest concentration of test compound at which ≤5 colonies were obtained was then evaluated as MBC, corresponding to a 99.9% decrease in CFU relative to the original inoculum.

[16] = test system: methicillin-resistant S. aureus SA 3202; assay: MBC, agar aliquot subculture method, MRSA1; assay type: cell-based; details: Staphylococcus aureus
Procedure: as §5

[17] = test system: methicillin-resistant S. aureus SA 630; assay: MBC, agar aliquot subculture method, MRSA2; assay type: cell-based; details: Staphylococcus aureus
Procedure: as §5

[18] = test system: methicillin-resistant S. aureus 63718; assay: MBC, agar aliquot subculture method, MRSA3; assay type: cell-based; details: Staphylococcus aureus
Procedure: as §5

[19] = test system: Mycobacterium smegmatis ATCC 700084; assay: MBC, agar aliquot subculture method, MS; assay type: cell-based; details: Mycolicibacterium smegmatis, ATCC700084
Procedure: as §5

[20] = test system: Mycobacterium marinum CAMP 5644; assay: MBC, agar aliquot subculture method, MM; assay type: cell-based; details: CAMP5644
Procedure: as §5

[21] = test system: Mycobacterium smegmatis ATCC 700084; details: 3 days; for Conc.: lowest multiple of MBC with at least 70% inhibition of respiratory activity / Conc.: lowest multiple of MIC with at least 70% inhibition of respiratory activity: MTT; for M. smegmatis Respiration Inhibition: at the concentration (lowest multiple of MIC with at least 70% inhibition)

Compound | IC50 [1] | IC50 [2] | IC50 [3] | IC50 [4] | MIC [5] | MIC [6] | MIC [7] | MIC [8] | MIC [9] | MIC [10] | MIC [11] | MIC [12] | MIC [13] | MIC [14] | MBC [15] | MBC [16] | MBC [17] | MBC [18] | MBC [19] | MBC [20] | other results
C[n+]1cc2c(c3ccccc31)Nc1cc(OCc3cn(Cc4ccc([N+](=O)[O-])cc4)nn3)ccc1S2 [2h, 5-Methyl-10-[1-(4-nitrobenzyl)-1H-1,2,3-triazol-4-yl]methoxy-12H-quino [3,4-b][1,4]benzothiazinium chloride] | 9.3 ± 0.5 µM | 14.6 ± 0.6 µM | 6.3 ± 0.3 µM | > 100 µM | 131 µM | 262 µM | 262 µM | 131 µM | > 524 µM | > 524 µM | > 524 µM | > 524 µM | 16.3 µM | 32.7 µM | 131 µM | 262 µM | 262 µM | 131 µM | 16.3 µM | 32.7 µM | Conc.: lowest multiple of MBC with at least 70% inhibition of respiratory activity [21]: 1× MIC (1× MBC); Conc.: lowest multiple of MIC with at least 70% inhibition of respiratory activity [21]: 1× MIC (1× MBC); viability of M. smegmatis at MIC value ([21]; Mycobacterium smegmatis): less than 70%; M. smegmatis Respiration Inhibition [21]: 81.4%
C[n+]1cc2c(c3ccccc31)Nc1ccc(OCc3cn(CSc4ccccc4)nn3)cc1S2 [2j, 5-Methyl-9-(1-(phenylthio)methyl-1H-1,2,3-triazol-4-yl)methoxy-12H-quino [3,4-b][1,4]benzothiazinium chloride] | 8.8 ± 0.4 µM | 10.5 ± 0.7 µM | 19.3 ± 1.2 µM | 28.7 ± 1.2 µM | 65.5 µM | 65.5 µM | 65.5 µM | 32.7 µM | 524 µM | 524 µM | 524 µM | 524 µM | 16.3 µM | 16.3 µM | 65.5 µM | 65.5 µM | 65.5 µM | 32.7 µM | 16.3 µM | 16.3 µM | Conc.: lowest multiple of MBC with at least 70% inhibition of respiratory activity [21]: 2× MIC (2× MBC); Conc.: lowest multiple of MIC with at least 70% inhibition of respiratory activity [21]: 2× MIC (2× MBC); M. smegmatis Respiration Inhibition [21]: 87.6%
C[n+]1cc2c(c3ccccc31)Nc1cc(OCc3cn(CSc4ccccc4)nn3)ccc1S2 [2k, 5-Methyl-10-(1-(phenylthio)methyl-1H-1,2,3-triazol-4-yl)methoxy-12H-quino [3,4-b][1,4] benzothiazinium chloride] | 6.1 ± 0.3 µM | 16.4 ± 0.9 µM | 10.6 ± 0.9 µM | > 100 µM | 65.5 µM | 65.5 µM | 65.5 µM | 16.3 µM | 524 µM | > 524 µM | 524 µM | 524 µM | 32.7 µM | 32.7 µM | 65.5 µM | 65.5 µM | 65.5 µM | 16.3 µM | 32.7 µM | 32.7 µM | 
C[n+]1cc2c(c3ccccc31)Nc1c(OCc3cn(CSc4ccccc4)nn3)cccc1S2 [2l, 5-Methyl-11-(1-(phenylthio)methyl-1H-1,2,3-triazol-4-yl)methoxy-12H-quino [3,4-b][1,4] benzothiazinium chloride] | 9.6 ± 0.8 µM | 14.1 ± 0.6 µM | 4.3 ± 0.2 µM | > 100 µM | 65.5 µM | 65.5 µM | 65.5 µM | 32.7 µM | 524 µM | 524 µM | 524 µM | 524 µM | 16.3 µM | 16.3 µM | 65.5 µM | 131 µM | 65.5 µM | 32.7 µM | 16.3 µM | 16.3 µM | Conc.: lowest multiple of MBC with at least 70% inhibition of respiratory activity [21]: 2× MIC (2× MBC); Conc.: lowest multiple of MIC with at least 70% inhibition of respiratory activity [21]: 2× MIC (2× MBC); M. smegmatis Respiration Inhibition [21]: 87.3%
